Source: US9056865B2, “Pyridine-2-derivatives as smoothened receptor modulators” (Pfizer Inc., priority 2010, dated 2015)

Experiments:
[1] = target: human Smo (Homo sapiens (Human), UniProt Q99835); experiment: Smo radioligand competition binding assay; details: for inhibition at 0.05 µM: 0.05 μM test compound, read-out: Smo % inh. @ 0.05 μM
In short: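 Membranes from HEK293 cells expressing surface human Smo 181-781 (40 μg protein/well) incubated 2 h at room temperature with test compound and tritiated Smo antagonist (3 nM), pH 7.5 Tris buffer; filtration and scintillation counting. Non-specific binding defined with 30 μM cold antagonist; IC50 from four-parameter sigmoidal fit.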

[2] = test system: Gli-Luc/MEF cells; experiment: Gli-Luc/MEF assay; format: cell-based, mouse; details: Mus musculus, MEF; Shh-stimulated luciferase, 48 hours
In short: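 Mouse embryonic fibroblasts from Gli-Luc transgenic mice (luciferase under Gli response element) dosed with compounds (final […], 3-fold series), then stimulated with recombinant mouse Shh at final 2 μg/mL. After 48 h at 37 °C, luminescence read by Bright-Glo; IC50 from inhibition of Shh-induced signal.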

Sequence of human Smo (Q99835 181-787): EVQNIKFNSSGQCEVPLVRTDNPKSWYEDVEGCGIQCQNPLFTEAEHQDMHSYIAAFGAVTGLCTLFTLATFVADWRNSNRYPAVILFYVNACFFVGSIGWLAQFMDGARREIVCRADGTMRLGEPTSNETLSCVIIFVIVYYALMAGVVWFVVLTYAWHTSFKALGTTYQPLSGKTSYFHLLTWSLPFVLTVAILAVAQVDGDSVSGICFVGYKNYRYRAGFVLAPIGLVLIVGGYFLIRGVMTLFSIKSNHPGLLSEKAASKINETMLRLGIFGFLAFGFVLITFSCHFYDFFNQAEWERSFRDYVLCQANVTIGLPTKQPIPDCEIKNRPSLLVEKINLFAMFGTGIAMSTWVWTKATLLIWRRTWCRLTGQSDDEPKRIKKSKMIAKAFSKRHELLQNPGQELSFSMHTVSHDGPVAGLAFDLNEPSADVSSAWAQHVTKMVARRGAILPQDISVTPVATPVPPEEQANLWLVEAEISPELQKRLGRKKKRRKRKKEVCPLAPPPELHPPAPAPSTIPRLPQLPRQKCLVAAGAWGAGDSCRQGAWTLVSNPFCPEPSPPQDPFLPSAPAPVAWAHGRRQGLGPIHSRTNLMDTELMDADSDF

SMILES	IC50 [1] [nM]	inhibition at 0.05 µM [1] [%]	IC50 [2] [nM]
CS(=O)(=O)CC1CCN(c2ncc(Cl)c(-c3ccccn3)n2)CC1 [Example A-92, 5-chloro-2-{4-[(methylsulfonyl)methyl]piperidin-1-yl}-4-pyridin-2-ylpyrimidine]	132	79.8	59
Cc1cccnc1-c1cc(N2CCN(C(=O)CCS(C)(=O)=O)CC2)ncc1Cl [Example A-93, 5′-chloro-3-methyl-2′-{4-[3-(methylsulfonyl)propanoyl]piperazin-1-yl}-2,4′-bipyridine]	9.84	97.5	12.4
Cc1cnc(-c2cc(N3CCC(O)CC3)ncc2Cl)c(C)c1 [Example A-94, 1-(5′-chloro-3,5-dimethyl-2,4′-bipyridin-2′-yl)piperidin-4-ol]	44.2	88	28.4
Cc1cccnc1-c1cc(N2CCC(NC(=O)CCS(C)(=O)=O)CC2)ncc1Cl [Example A-95, N-[1-(5′-chloro-3-methyl-2,4′-bipyridin-2′-yl)piperidin-4-yl]-3-(methylsulfonyl)propanamide]	37	94	32
Cc1cccnc1-c1cc(N2CCC(CNCCS(C)(=O)=O)CC2)ncc1Cl [Example A-96, N-{[1-(5′-chloro-3-methyl-2,4′-bipyridin-2′-yl)piperidin-4-yl]methyl}-2-(methylsulfonyl)ethanamine]	102	84.1	62.5
Cc1cccnc1-c1nc(N2CCC(CS(C)(=O)=O)CC2)ncc1Cl [Example A-97, 5-chloro-4-(3-methylpyridin-2-yl)-2-{4-[(methylsulfonyl)methyl]piperidin-1-yl}pyrimidine]	30	95.4	13.3
Cc1cnc(-c2cc(N3CCC(CS(C)(=O)=O)CC3)ncc2Cl)c(C)c1 [Example A-98, 5′-chloro-3,5-dimethyl-2′-{4-[(methylsulfonyl)methyl]piperidin-1-yl}-2,4′-bipyridine]	12.4	96.6	9.4
CS(=O)(=O)CCC(=O)N1CCN(c2ccc(Cl)c(-c3ccccn3)n2)CC1 [Example A-99, 3-chloro-6-{4-[3-(methylsulfonyl)propanoyl]piperazin-1-yl}-2,2′-bipyridine]	33.1	94.4	23.9
CC(=O)N1CCN(c2cc(-c3ncc(C)cc3C)c(Cl)cn2)CC1 [Example A-100, 2′-(4-acetylpiperazin-1-yl)-5′-chloro-3,5-dimethyl-2,4′-bipyridine]	113	85.6	50.2
COC(=O)N1CCN(c2cc(-c3ncc(C)cc3C)c(Cl)cn2)CC1 [Example A-101, methyl 4-(5′-chloro-3,5-dimethyl-2,4′-bipyridin-2′-yl)piperazine-1-carboxylate]	72.4	89	30.2
Cc1cnc(-c2cc(N3CCN(C(=O)CO)CC3)ncc2Cl)c(C)c1 [Example A-102, 2-[4-(5′-chloro-3,5-dimethyl-2,4′-bipyridin-2′-yl)piperazin-1-yl]-2-oxoethanol]	57.9	84	60.1
Cc1cnc(-c2cc(N3CCN(C(=O)CC(C)(C)O)CC3)ncc2Cl)c(C)c1 [Example A-103, 4-[4-(5′-chloro-3,5-dimethyl-2,4′-bipyridin-2′-yl)piperazin-1-yl]-2-methyl-4-oxobutan-2-ol]	19.4	98	11.7
Cc1cnc(-c2cc(N3CCN(S(C)(=O)=O)CC3)ncc2Cl)c(C)c1 [Example A-104, 5′-chloro-3,5-dimethyl-2′-[4-(methylsulfonyl)piperazin-1-yl]-2,4′-bipyridine]	36	92.9	12.7
Cc1cnc(-c2cc(N3CCN(C(=O)CN(C)C)CC3)ncc2Cl)c(C)c1 [Example A-105, 2-[4-(5′-chloro-3,5-dimethyl-2,4′-bipyridin-2′-yl)piperazin-1-yl]-N,N-dimethyl-2-oxoethanamine]	82.4	84.5	12.3
Cc1cnc(-c2cc(N3CCN(C(=O)CCO)CC3)ncc2Cl)c(C)c1 [Example A-106, 3-[4-(5′-chloro-3,5-dimethyl-2,4′-bipyridin-2′-yl)piperazin-1-yl]-3-oxopropan-1-ol]	65.7	86	36.5
Cc1cccnc1-c1cc(N2[C@@H]3CC[C@H]2CN(C(=O)CC(C)(C)O)C3)ncc1Cl [Example A-107, 1-[(1R,5S)-8-(5′-chloro-3-methyl-2,4′-bipyridin-2′-yl)-3,8-diazabicyclo[3.2.1]oct-3-yl]-3-hydroxy-3-methylbutan-1-one]		82.7	41.5

SMILES	IC50 [1] [nM]	inhibition at 0.05 µM [1] [%]	IC50 [2] [nM]
Cc1cc(F)cnc1-c1cc(N2CCC(NS(C)(=O)=O)CC2)ncc1Cl [Example A-108, N-[1-(5′-chloro-5-fluoro-3-methyl-2,4′-bipyridin-2′-yl)piperidin-4-yl]methanesulfonamide]	20.8	91.5	11.2
Cc1cc(Cl)cnc1-c1cc(N2CCC(NS(C)(=O)=O)CC2)ncc1Cl [Example A-109, N-[1-(5,5′-dichloro-3-methyl-2,4′-bipyridin-2′-yl)piperidin-4-yl]methanesulfonamide]	20.5	97.4	6.81
COCCS(=O)(=O)N1CCN(c2cc(-c3ncc(C)cc3C)c(Cl)cn2)CC1 [Example A-110, 5′-chloro-2′-{4-[(2-methoxyethyl)sulfonyl]piperazin-1-yl}-3,5-dimethyl-2,4′-bipyridine]	29.2	94.4	12.4
Cc1cnc(-c2cc(N3CCN(S(=O)(=O)CCO)CC3)ncc2Cl)c(C)c1 [Example A-111, 2-{[4-(5′-chloro-3,5-dimethyl-2,4′-bipyridin-2′-yl)piperazin-1-yl]sulfonyl}ethanol]	23.3	95	10.2
Cc1cnc(-c2cc(N3CCN(CCS(C)(=O)=O)CC3)ncc2Cl)c(C)c1 [Example A-112, 5′-chloro-3,5-dimethyl-2′-{4-[2-(methylsulfonyl)ethyl]piperazin-1-yl}-2,4′-bipyridine]	124	72.9	25.3
Cc1cnc(-c2cc(N3CCC(NC(=O)CO)CC3)ncc2Cl)c(C)c1 [Example A-113, N-[1-(5′-chloro-3,5-dimethyl-2,4′-bipyridin-2′-yl)piperidin-4-yl]-2-hydroxyacetamide]	55.6	84	11.7
Cc1cnc(-c2cc(N3CCC(NC(=O)CN(C)C)CC3)ncc2Cl)c(C)c1 [Example A-114, N-(1-(5′-chloro-3,5-dimethyl-[2,4′-bipyridin]-2′-yl)piperidin-4-yl)-2-(dimethylamino)acetamide]	19.2	94.5	3.86
Cc1ccc(-c2cccc(N3CCC(NS(C)(=O)=O)CC3)n2)nc1 [Example A-115, N-[1-(5′-methyl-2,2′-bipyridin-6-yl)piperidin-4-yl]methanesulfonamide]	22	93	16
Cc1ccc(-c2nc(N3CCC(NS(C)(=O)=O)CC3)ccc2Cl)nc1 [Example A-117, N-[1-(3-chloro-5′-methyl-2,2′-bipyridin-6-yl)piperidin-4-yl]methanesulfonamide]	17	96	11
Cc1cnc(-c2cc(N3CCC(CS(N)(=O)=O)CC3)ncc2Cl)c(C)c1 [Example A-118, 1-[1-(5′-chloro-3,5-dimethyl-2,4′-bipyridin-2′-yl)piperidin-4-yl]methanesulfonamide]	11.1	93.8	8.46
Cc1ccc(-c2nc(N3CCC(NS(C)(=O)=O)CC3)ncc2Cl)nc1 [Example A-119, N-{1-[5-chloro-4-(5-methylpyridin-2-yl)pyrimidin-2-yl]piperidin-4-yl}methanesulfonamide]	58.9	88.5	22.9
Cc1ccc(-c2nc(N3CCC(NS(C)(=O)=O)CC3)ccc2Br)nc1 [Example A-120, N-[1-(3-bromo-5′-methyl-2,2′-bipyridin-6-yl)piperidin-4-yl]methanesulfonamide]	40	93	29
CCS(=O)(=O)NC1CCN(c2cc(-c3ncc(C)cc3C)c(Cl)cn2)CC1 [Example A-121, N-[1-(5′-chloro-3,5-dimethyl-2,4′-bipyridin-2′-yl)piperidin-4-yl]ethanesulfonamide]	11.6	101	4.25
Cc1cnc(-c2cc(N3CCC(NC(=O)CCS(C)(=O)=O)CC3)ncc2Cl)c(C)c1 [Example A-122, N-[1-(5′-chloro-3,5-dimethyl-2,4′-bipyridin-2′-yl)piperidin-4-yl]-3-(methylsulfonyl)propanamide]	14.7	103	5.49
COCCS(=O)(=O)NC1CCN(c2ccc(Cl)c(-c3ccccn3)n2)CC1 [Example A-123, N-[1-(3-chloro-2,2′-bipyridin-6-yl)piperidin-4-yl]-2-methoxyethanesulfonamide]	26.7	90.4	14.1
Cc1cc(C#N)cnc1-c1cc(N2CCC(NS(C)(=O)=O)CC2)ncc1Cl [Example A-125, N-[1-(5′-chloro-5-cyano-3-methyl-2,4′-bipyridin-2′-yl)piperidin-4-yl]methanesulfonamide]	95.6	82.3	32.3
